Reference: PubChem BioAssay (NCI)
Several values for one entry are separate records, joined by “and”; a condition that tells them apart may be missing. Equal values may be shown once.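 Growth conditions: 96-well plates. Treatment: test compound, 48 hours, 5 concentrations. Analysis: linear interpolation between bracketing concentrations; unreached endpoints set to highest concentration. Abbreviation: GI50, concentration required for 50% inhibition of growth. TGI: concentration producing complete growth inhibition.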

Tests used:
Test in all cases: NCI tumour cell line growth inhibition, 48 h
NCI-H522 lung = test system: NCI-H522 lung
BT-549 breast = test system: BT-549 breast
UO-31 renal = test system: UO-31 renal
MALME-3M melanoma = test system: MALME-3M melanoma
SR leukemia = test system: SR leukemia
MCF7 breast = test system: MCF7 breast
EKVX NSCLC = test system: EKVX NSCLC
SF-539 CNS = test system: SF-539 CNS
SK-MEL-28 melanoma = test system: SK-MEL-28 melanoma
HL-60(TB) leukemia = test system: HL-60(TB) leukemia

Row | Compound | GI50 (NCI-H522 lung) | TGI (NCI-H522 lung) | GI50 (BT-549 breast) [µM] | TGI (BT-549 breast) | GI50 (UO-31 renal) [µM] | TGI (UO-31 renal) | GI50 (MALME-3M melanoma) | TGI (MALME-3M melanoma) | GI50 (SR leukemia) [µM] | TGI (SR leukemia) | GI50 (MCF7 breast) [µM] | TGI (MCF7 breast) | GI50 (EKVX NSCLC) [µM] | TGI (EKVX NSCLC) | GI50 (SF-539 CNS) [µM] | TGI (SF-539 CNS) | GI50 (SK-MEL-28 melanoma) [µM] | TGI (SK-MEL-28 melanoma) | GI50 (HL-60(TB) leukemia) [µM] | TGI (HL-60(TB) leukemia) [µM]
1 | COc1cccc2c(=O)c3c(sc12)c(N1CCNCC1)nc1ccccc13 | 1.79 µM | 3.69 µM | 13.3 | 27.5 µM | 1.07 | 2.32 µM | 1.65 µM | 3.24 µM | 0.622 | > 100 µM | 1.57 | 3.28 µM | 1.62 | 3.17 µM | 1.75 | 3.21 µM | 1.86 | 3.4 µM | – | –
2 | C=C1CCC(CC[C@@H]2CC[C@]3(OC2)O[C@@]2(O)CC[C@]3(C)OC2(C)C)C(C)(C)[C@H]1C/C=C1/C(=O)OC[C@@H]1O (some centres not stated) | – | 3.5 µM | – | 4.76 µM | – | 9.33 µM | – | 5.99 µM | – | > 100 µM | – | 2.94 µM | – | 11.3 µM | – | 9.18 µM | – | 3.58 µM | – | –
3 | Nc1ccc2cc3ccc(N)cc3nc2c1 | 0.295 µM and 0.542 µM and 0.824 µM | 1.31 µM and 2.82 µM and 2.87 µM | 1.91 | 10.4 µM and 16.2 µM and 12 µM | 0.412 | 5.13 µM [middle of 4 runs] | 1.16 µM [middle of 4 runs] | 3.21 µM [middle of 4 runs] | – | 14.1 µM and 2.1 µM and 6.96 µM | 0.52 | 7.19 µM and 22.6 µM and 14.5 µM | 0.64 | 10.6 µM and 6.53 µM and 7.66 µM | 1.56 | 4.54 µM [middle of 4 runs] | – | 5.11 µM [middle of 4 runs] | – | –
4 | O=c1c2ccccc2c(=O)c2c1[nH]c1c(-c3ccccc3)c(-c3ccccc3)c(=O)c12 | 2.19 µM | 5.73 µM | 2.09 | 4.69 µM | 1.75 | 5.55 µM | 2.24 µM | 8.19 µM | 2.15 | 13.5 µM | 2.48 | > 100 µM | 3.2 | 11.8 µM | 1.85 | 3.74 µM | 3.51 | 14.3 µM | – | –
5 | Cc1ncc(CCCN(C)C)cc1Nc1ncc2c(n1)-c1ccc(C(F)(F)F)cc1NC(=S)C2 | < 0.01 µM | 18.1 µM | 0.768 | 21.8 µM | 0.494 | 12.5 µM | 0.0312 µM | 23.6 µM | < 0.01 | 3.35 µM | < 0.0155 | 11.2 µM | – | – | 0.0312 | 0.11 µM | – | – | < 0.0148 | 0.872
6 | COc1cc(/C=C/c2ccc(OC)c(OC)c2)cc(OC)c1 | – | 66.4 µM | – | 72.3 µM | – | 83.1 µM | – | > 100 µM | – | > 100 µM | – | > 100 µM | – | > 100 µM | – | > 100 µM | – | > 100 µM | – | –
7 | CC(C)C[C@H](NC(=O)/C=C/Cn1ccc2ccccc2c1=O)B(O)O | 2.52 µM | 6.39 µM | 2.67 | 13.7 µM | 9.45 | > 100 µM | 3.82 µM | 23 µM | 0.887 | 21.8 µM | 5.33 | > 100 µM | – | – | 2.16 | 6.45 µM | 3.85 | 36 µM | 2.95 | > 100
8 | COc1cc(/C=C/c2cc(/C=C/c3ccc(O)c(OC)c3)n(C(=O)Nc3ccc(C)cc3C)n2)ccc1O | – | – | 0.693 | 16.8 µM | 0.362 | 1.74 µM | – | – | 0.0445 | – | 0.317 | 1.37 µM | 0.995 | 5.76 µM | – | – | 0.509 | 2.46 µM | 0.262 | 0.801
9 | C#Cc1c(I)n(C2OC(CO[Si](C)(C)C(C)(C)C)C3OC(C)(C)OC32)c(=O)[nH]c1=O (configuration not stated) | 1.72 µM | 3.52 µM | 16.4 | 31.2 µM | 1.99 | 5.49 µM | 2.41 µM | 6.59 µM | 2.62 | 12.8 µM | 16.6 | 50 µM | 20.6 | 52.3 µM | 16.6 | 31.4 µM | 2 | 4.43 µM | – | –
10 | O=C(/C=C\c1ccc(NCc2ccc(C(=O)O)cc2)cc1)CCl | 1.65 µM | 3.24 µM | 7.95 | 21.5 µM | 14.6 | 29.2 µM | – | – | 3.33 | 10.9 µM | 4.26 | 17.7 µM | – | – | 15.5 | 29.3 µM | 16.8 | 31.4 µM | 14.8 | 36.7
11 | CCCCCCCCCCCCCCCCCCOc1ccccc1CC(=O)OCC[N+]1(C)CCCC1 | – | – | 2.59 | 6.95 µM | 3.27 | 15 µM | 2.08 µM | 5.22 µM | 2.47 | 6.92 µM | 2.11 | 4.76 µM | 3.38 | 16.4 µM | 1.86 | 3.62 µM | 2.72 | 7.86 µM | 2.1 | 5.07
12 | COc1c(CCl)cc(-c2cc(=O)c3ccccc3s2)cc1CCl | – | – | – | > 100 µM | – | 3.84 µM | – | – | – | > 100 µM | – | > 22.7 µM | – | > 100 µM | – | > 42.3 µM | – | > 100 µM | – | > 23.6
